The values that follow come from patent publication US7589213B2 (priority 2007, dated 2009).

The target in series [1] is T1, EP2 (Homo sapiens, UniProt P43116). Nature of the series: EP2 cAMP assay. It counts as cell-based. An excerpt:
(§1) U.S. patent application Ser. No. 11/553,143, filed on Oct. 26, 2006, incorporated by reference herein, describes the methods used to obtain the in vitro data in the table below.

The target of a further series is T2, hDP (Homo sapiens, UniProt Q13258).
T2 sequence (Q13258 1-359): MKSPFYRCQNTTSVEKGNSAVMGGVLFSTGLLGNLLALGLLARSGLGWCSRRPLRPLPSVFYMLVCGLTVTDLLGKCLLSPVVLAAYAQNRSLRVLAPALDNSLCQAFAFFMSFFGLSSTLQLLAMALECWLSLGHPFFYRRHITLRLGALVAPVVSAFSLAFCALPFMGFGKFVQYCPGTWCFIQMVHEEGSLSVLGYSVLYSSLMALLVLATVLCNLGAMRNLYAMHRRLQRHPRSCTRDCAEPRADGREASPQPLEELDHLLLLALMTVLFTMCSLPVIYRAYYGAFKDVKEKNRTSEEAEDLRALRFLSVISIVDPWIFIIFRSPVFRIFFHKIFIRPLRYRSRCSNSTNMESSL
Nature of the series: Other receptors functional EC50, hDP. It counts as cell-based.
Excerpt: as §1

For a further series, the target named is T3, hEP1 (Homo sapiens, UniProt P34995).
T3 sequence (P34995 1-402): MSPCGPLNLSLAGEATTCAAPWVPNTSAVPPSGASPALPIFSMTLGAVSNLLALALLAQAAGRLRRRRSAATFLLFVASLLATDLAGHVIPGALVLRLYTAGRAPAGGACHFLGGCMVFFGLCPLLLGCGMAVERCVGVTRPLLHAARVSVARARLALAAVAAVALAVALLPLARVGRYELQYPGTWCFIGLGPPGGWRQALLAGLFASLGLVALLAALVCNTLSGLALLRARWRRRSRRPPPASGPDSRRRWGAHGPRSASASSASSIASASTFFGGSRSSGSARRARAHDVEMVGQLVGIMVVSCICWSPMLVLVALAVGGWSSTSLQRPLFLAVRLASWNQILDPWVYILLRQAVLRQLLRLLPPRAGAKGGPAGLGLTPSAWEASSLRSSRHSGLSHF
Nature of the series: Other receptors functional EC50, hEP1. It counts as cell-based.
Excerpt: as §1

A further series addresses T4, hEP3A (Homo sapiens, UniProt P43115).
T4 sequence (P43115 1-390): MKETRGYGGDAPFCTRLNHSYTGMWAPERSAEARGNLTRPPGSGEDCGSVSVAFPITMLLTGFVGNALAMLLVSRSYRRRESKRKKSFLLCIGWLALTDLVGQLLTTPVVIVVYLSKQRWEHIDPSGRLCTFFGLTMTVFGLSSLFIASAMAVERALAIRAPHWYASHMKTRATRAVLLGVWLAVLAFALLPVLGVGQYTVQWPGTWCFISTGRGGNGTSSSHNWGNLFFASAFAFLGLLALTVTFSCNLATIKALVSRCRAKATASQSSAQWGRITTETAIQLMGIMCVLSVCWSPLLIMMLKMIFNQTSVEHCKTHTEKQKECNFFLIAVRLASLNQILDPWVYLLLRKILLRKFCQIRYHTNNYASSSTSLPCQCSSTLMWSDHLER
Nature of the series: Other receptors functional EC50, hEP3A. It counts as cell-based.
Excerpt: as §1

Series [2] concerns the target T1, EP2. The experiment in a line: EP2 binding (Ki).
Excerpt: as §1

Series [3] concerns the target T1, EP2. The experiment in a line: EP2 flipr assay. The format is cell-based.
Excerpt: as §1

Series [4] deals with T5, EP4 (Homo sapiens, UniProt P35408). Nature of the series: EP4 binding (KI).
T5 sequence (P35408 whole entry): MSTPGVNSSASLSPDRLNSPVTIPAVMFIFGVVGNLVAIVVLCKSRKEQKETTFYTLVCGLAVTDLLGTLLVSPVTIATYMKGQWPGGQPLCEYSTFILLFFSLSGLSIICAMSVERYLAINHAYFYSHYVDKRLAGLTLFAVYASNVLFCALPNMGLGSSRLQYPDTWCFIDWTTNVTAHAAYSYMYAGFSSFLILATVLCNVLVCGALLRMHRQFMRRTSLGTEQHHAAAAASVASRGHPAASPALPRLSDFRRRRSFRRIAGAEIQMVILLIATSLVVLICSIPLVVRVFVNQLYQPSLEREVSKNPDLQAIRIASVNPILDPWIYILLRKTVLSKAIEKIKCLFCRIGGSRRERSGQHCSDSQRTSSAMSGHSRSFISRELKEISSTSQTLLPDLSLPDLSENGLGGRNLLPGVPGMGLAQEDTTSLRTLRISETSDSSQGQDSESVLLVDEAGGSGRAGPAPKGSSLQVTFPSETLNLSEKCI
Excerpt: as §1

Series [5] addresses T5, EP4. The experiment in a line: EP4 flipr assay. The format is cell-based.
Excerpt: as §1

A further series relates to normotensive dogs. The experiment in a line: Intraocular pressure and ocular surface hyperemia in normotensive dogs. It counts as in vivo, dog. The conditions noted are these: once daily for 5 days. As for the experimental part:
U.S. Pat. No. 7,091,231 describes the methods used to carry out the tests reported below.
[…] The maximum intraocular pressure (IOP) decrease from baseline was 6.3 mmHg (39%) at 4 h; the maximum ocular surface hyperemia (OSH) score was 1.6 at 28 hours. This compound was also tested in laser-induced hypertensive monkeys, using one single day dose. At 0.01%, the maximum IOP decrease from baseline was 23 mmHg (61%) at 24 hours.

A further series addresses T6, hTP (Homo sapiens, UniProt P21731).
T6 sequence (P21731 1-343): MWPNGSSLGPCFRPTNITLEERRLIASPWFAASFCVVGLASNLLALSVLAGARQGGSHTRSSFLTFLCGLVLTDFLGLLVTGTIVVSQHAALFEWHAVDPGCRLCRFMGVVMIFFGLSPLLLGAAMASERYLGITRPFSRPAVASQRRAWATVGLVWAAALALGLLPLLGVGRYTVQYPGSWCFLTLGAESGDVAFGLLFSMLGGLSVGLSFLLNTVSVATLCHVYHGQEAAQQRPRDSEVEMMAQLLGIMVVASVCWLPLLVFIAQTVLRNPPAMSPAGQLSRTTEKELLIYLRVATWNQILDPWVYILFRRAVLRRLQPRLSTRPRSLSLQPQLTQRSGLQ
The experiment in a line: Other receptors functional EC50, hTP. The format is cell-based.
Excerpt: as §1

Broadly, the EC50 is the concentration needed to bring the measured effect to its halfway point. High values mean a need for much substance, low ones an effect from little substance. By Ki is commonly meant the dissociation constant of the complex between target and ligand, obtained from inhibition or displacement. Lower therefore signals higher affinity.

The structures appear in SMILES notation. Some results are limits rather than exact numbers.

T1 sequence (P43116 whole entry): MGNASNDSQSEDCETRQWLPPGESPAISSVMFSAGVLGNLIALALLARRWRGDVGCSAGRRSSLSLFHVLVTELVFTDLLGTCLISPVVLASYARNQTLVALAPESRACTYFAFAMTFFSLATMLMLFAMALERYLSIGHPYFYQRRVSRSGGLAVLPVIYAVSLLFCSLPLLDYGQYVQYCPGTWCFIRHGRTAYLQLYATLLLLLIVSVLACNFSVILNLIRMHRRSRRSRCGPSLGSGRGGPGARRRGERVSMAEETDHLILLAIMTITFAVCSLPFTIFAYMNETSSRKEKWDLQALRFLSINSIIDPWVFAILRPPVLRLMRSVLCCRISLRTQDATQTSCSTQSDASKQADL

On to `CCCCCC(O)c1ccc(N2C(=O)CC[C@@H]2CCSc2nc(C(=O)O)cs2)cc1` (single isomer, unassigned) [compound 17], for which the EC50 at EP2 [1] is 0.15 nM; on hDP it was greater than 10000 nM; at hEP1 it was greater than 10000 nM; at hEP3A, 35 nM; on EP2 [3] it was 18 nM. Further, at EP2 [2], affinity was put at a Ki of 15 nM.
`CCCCCC(O)c1ccc(N2C(=O)CC[C@@H]2CCSc2nc(C(=O)O)cs2)cc1` (single isomer, unassigned) [compound 18]: the EC50 was 0.09 nM on EP2 [1], 7170 nM at hDP, 46 nM on hEP3A and 7 nM on EP2 [3]. At EP2 [2], the Ki was 15 nM.
Turning to `CCCCCCC(O)c1ccc(N2C(=O)CC[C@@H]2CCSc2nc(C(=O)O)cs2)cc1` (single isomer, unassigned) [compound 36], the Ki at EP4 [4] is greater than 10000 nM; at EP2 [2] it was 13 nM. The EC50 on EP2 [1] turned out to be 1.2 nM; on hDP, 11900 nM; at hEP3A, 11 nM; at EP2 [3] it was 57 nM.
Take `CCCCCCC(O)c1ccc(N2C(=O)CC[C@@H]2CCSc2nc(C(=O)O)cs2)cc1` (single isomer, unassigned) [compound 37]: the Ki amounted to 9150 nM at EP4 [4] and 9 nM on EP2 [2]. Besides, the EC50 at EP2 [1] stood at 0.4 nM; at hDP, 5320 nM; at EP4 [5] it was 14600 nM; on hEP3A it was 51 nM; on EP2 [3] it was 11 nM.
Consider `CCCCCC(O)c1ccc(N2C(=O)CC[C@@H]2CCSc2nc(C(=O)OC(C)C)cs2)cc1` (single isomer, unassigned) [compound 67], for which the “maximum ocular surface hyperemia (OSH) score” value with normotensive dogs (0.001%, maximum at 50 hours) was found to be 1.9; in the series with normotensive dogs (0.01%, maximum at 26 hours), 2.0.
Regarding `CCCCCC(O)c1ccc(N2C(=O)CC[C@@H]2CCSc2nc(C(=O)OC(C)C)cs2)cc1` (single isomer, unassigned) [compound 68], the “maximum ocular surface hyperemia (OSH) score” value in the series with normotensive dogs (0.01%, maximum at 28 hours) was determined as 2.0.
Regarding `CCCCCC(F)c1ccc(N2C(=O)CC[C@@H]2CCSc2nc(C(=O)O)cs2)cc1` (stereo partly drawn) [compound 19, (R)-2-(2-(1-(4-(1-fluorohexyl)phenyl)-5-oxopyrrolidin-2-yl)ethylthio)thiazole-4-carboxylic acid], the Ki on EP4 [4] was greater than 10000 nM; at EP2 [2], 9 nM. Also, the EC50 is 0.23 nM at EP2 [1]; greater than 10000 nM on hDP; greater than 10000 nM at hEP1; 90 nM at hEP3A; 8 nM at EP2 [3].
For the compound `CCCCCCC(O)c1ccc(N2C(=O)CC[C@@H]2CCSc2nc(C(=O)O)cs2)cc1` (stereo partly drawn) [compound 33, (R)-2-(2-(1-(4-(1-hydroxyheptyl)phenyl)-5-oxopyrrolidin-2-yl)ethylthio)thiazole-4-carboxylic acid], the Ki on EP4 [4] stood at 6360 nM; on EP2 [2], 12 nM. Also, the concentration for a half-maximal effect (EC50) on EP2 [1] is 0.4 nM; on hDP, 1560 nM; on EP4 [5], greater than 10000 nM; on hEP1 it was greater than 10000 nM; on hEP3A it was 25 nM; at EP2 [3], 3 nM.
For the compound `CCCCCCC(=O)c1ccc(N2C(=O)CC[C@@H]2CCSc2nc(C(=O)O)cs2)cc1` [compound 38, (R)-2-(2-(1-(4-heptanoylphenyl)-5-oxopyrrolidin-2-yl)ethylthio)thiazole-4-carboxylic acid], the Ki at EP4 [4] was found to be 3030 nM; at EP2 [2], 18 nM. Also, the EC50 on EP2 [1] is 0.7 nM; on hDP it was 594 nM; on EP4 [5] it was greater than 10000 nM; on hEP3A, 43 nM; on EP2 [3], 45 nM.
As for `CCCCCC(O)c1ccc(N2C(=O)CC[C@@H]2COCc2cc(C(=O)O)cs2)cc1` (stereo partly drawn) [compound 42, (R)-5-(((1-(4-(1-hydroxyhexyl)phenyl)-5-oxopyrrolidin-2-yl)methoxy)methyl)thiophene-3-carboxylic acid], the Ki on EP4 [4] was greater than 10000 nM; at EP2 [2], 448 nM. Also, the results for the EC50 at EP2 [1], at hEP3A and on EP2 [3] were 5.5 nM, 1520 nM and 2240 nM, respectively.
On the same counts, the results for `CCCCCC(F)c1ccc(N2C(=O)CC[C@@H]2COCc2cc(C(=O)O)cs2)cc1` (stereo partly drawn) [compound 43, (R)-5-(((1-(4-(1-fluorohexyl)phenyl)-5-oxopyrrolidin-2-yl)methoxy)methyl)thiophene-3-carboxylic acid] are greater than 10000 nM, 256 nM, 7 nM, 1960 nM and 3850 nM.
On the same counts, the results for `CCCCCC(O)c1ccc(N2C(=O)CC[C@@H]2COCc2csc(C(=O)O)c2)cc1` (stereo partly drawn) [compound 47, (R)-4-(((1-(4-(1-hydroxyhexyl)phenyl)-5-oxopyrrolidin-2-yl)methoxy)methyl)thiophene-2-carboxylic acid] are greater than 10000 nM, 784 nM, 18 nM, 1340 nM and 2530 nM.
In the case of `CCCCCC(F)c1ccc(N2C(=O)CC[C@@H]2COCc2csc(C(=O)O)c2)cc1` (stereo partly drawn) [compound 48, (R)-4-(((1-(4-(1-fluorohexyl)phenyl)-5-oxopyrrolidin-2-yl)methoxy)methyl)thiophene-2-carboxylic acid], the figures for the inhibition constant (Ki) at EP4 [4] and on EP2 [2] were greater than 10000 nM and 1930 nM, respectively. The EC50 on EP2 [1] was 40 nM; at hEP3A it was 3410 nM; at EP2 [3], 5010 nM.
In the case of `CCCCCC(F)c1ccc(N2C(=O)CC[C@@H]2CSc2nc(C(=O)O)cs2)cc1` (some centres unmarked) [compound 54], the values for the Ki on EP4 [4] and at EP2 [2] were greater than 10000 nM and 345 nM, respectively. Further, the concentration for a half-maximal effect (EC50) at EP2 [1] worked out at 117 nM; on hDP it was 16400 nM; on hTP it was 14500 nM; at hEP3A it was 503 nM; at EP2 [3], 212 nM.
Take `CCCCCC(O)c1ccc(N2C(=O)CC[C@@H]2CSc2nc(C(=O)O)cs2)cc1` (some centres unmarked) [compound 55]: the inhibition constant (Ki) on EP4 [4] is greater than 10000 nM; at EP2 [2], 355 nM. The EC50 at EP2 [1] was determined as 120 nM; on hDP it was 16000 nM; at hTP it was 3890 nM; at hEP3A, 360 nM; on EP2 [3], 284 nM.
Take `CCCCCC(O)c1ccc(N2C(=O)CC[C@@H]2CCCc2nc(C(=O)O)cs2)cc1` (stereo partly drawn) [compound 63, (S)-2-(3-(1-(4-(1-hydroxyhexyl)phenyl)-5-oxopyrrolidin-2-yl)propyl)thiazole-4-carboxylic acid]: the EC50 on EP2 [1] is 0.8 nM; on hDP, greater than 10000 nM; on hEP3A it was 42 nM; at EP2 [3] it was 37 nM. On EP2 [2], this compound gave a Ki of 115 nM.
On to `CCCCCC(O)c1ccc(N2C(=O)CC[C@@H]2CCSc2nc(C(=O)OC(C)C)cs2)cc1` (stereo partly drawn) [compound 66, Isopropyl 2-(2-((2R)-1-(4-(1-hydroxyhexyl)phenyl)-5-oxopyrrolidin-2-yl)ethylthio)thiazole-4-carboxylate], for which the “maximum ocular surface hyperemia (OSH) score” value in the series on normotensive dogs (0.01%, maximum at 28 hours) worked out at 1.6.
